Measurements from patent US4696930A, “N-(heteroarylalkyl)acylanilide derivatives as antiarrhythmic agents” (Hoffmann-La Roche Inc., priority 1985, dated 1987).
Where two headings read alike, the source gives them in different places.

How the values were obtained:
[1] = system: Ouabain-induced ventricular arrhythmia; experiment: Effectiveness against ouabain-induced ventricular arrhythmia in anesthetized dogs; type: in vivo, dog; conditions: for minimal effective dose: Canis lupus familiaris, iv; for minimal effective dose / No. of effective cases/No. of experiments: dog
Experimental: Ventricular arrhythmia in an anesthetized dog was induced by an intravenous administration of ouabain. An initial i.v. dose of 40 μg/kg was administered, then 20 μg/kg i.v. 30 minutes later and then additional 10 μg/kg i.v. every 15 minutes until ventricular arrhythmia developed. […] The test compound, which was rac.-2-amino-N-(2,6-dimethylphenyl)-N-[3-(3-pyridinyl)propyl]propanamide dihydrochloride, dissolved in saline solution, was injected into the femoral vein 10 min. after the development of the arrhythmia. The dose schedule for the test compound was 1, 3 and 10 mg/kg i.v. in this order at 15 minute intervals until the arrhythmia was reversed to sinus rhythm.
Effectiveness against Ouabain-induced
Ventricular Arrhythmia in Dogs
MED: Minimum effective dose was measured by successive injections of 1, 3
and 10 mg/kg into the femoral vein at 15 minuteintervals until
ouabaininduced arrhythmia was reversed to the sinus rhythm.

Thromboxane Synthase = experiment: Thromboxane synthase inhibition (Table III, enzyme source not stated); type: biochemical; conditions: platelet species not stated, read-out: Thromboxane Synthase Inh. IC50
Experimental: (§1) Rac.-2-amino-N-(2,6-dimethylphenyl)-N-[3-(3-pyridinyl)propyl]propanamide dihydrochloride was tested for its inhibitory effects on thromboxane A2 synthetase (washed rabbit platelet) activity in vitro.
(§2) Therefore, rac.-2-amino-N-(2,6-dimethylphenyl)-N-[3-(3-pyridinyl)propyl]propanamide dihydrochloride is useful in the treatment of ischemic heart disease.

[2] = system: Platelet Activating Factor (PAF) induced aggregation of human platelet rich plasma; experiment: Inhibition of platelet activating factor (PAF) induced platelet aggregation; type: cell-based; conditions: human PRP, PAF 1 μM, first phase response
Experimental: Human platelet rich plasma (PRP) and platelet poor plasma (PPP) are prepared from 0.38% sodium citrate treated blood. PRP is obtained by centrifugation at 180×g for 10 minutes and PPP by centrifuging the remaining red cell layer 1000×g for 10 minutes. Aggregation is determined by the turbidometric method of Born which was cited above, and monitored at 37° C. with a Payton dual channel module with stirring speed set at 900 rpm. PRP (0.45 ml) is added to a siliconized cuvette and prewarmed to 37° C. Zero and 100% light transmission are set with PRP and PPP, respectively. PAF (50 μl) is added to the stirring PRP one minute after the addition of 5 μl of the compound to be tested. PRP prepared from citrated human blood will aggregate when stirred in the presence of PAF giving a two phase response. The first phase is caused by PAF and the second phase is caused by the release of arachidonic acid. PAF is used at 1 μM and only the first phase response, about 30% aggregation, is evaluated. The first phase is resistant to indomethacin. 50% inhibition of the 1st phase PAF response is calculated from dose curves and represented as IC50 values. […] Activities of compounds of the invention in this test can be found in Table III below.

[3] = system: Arachidonic Acid (AA) induced aggregation of human platelet rich plasma; experiment: Inhibition of arachidonic acid (AA) induced platelet aggregation; type: cell-based; conditions: 2 min, human PRP, AA 0.3 to 1 mM
Experimental: Human platelet rich plasma (PRP) and platelet poor plasma (PPP) are prepared from 0.38% sodium citrate treated blood. PRP is obtained by centrifugation at 180×g for 10 minutes and PPP by centrifuging the remaining red cell layer 1000×g for 10 minutes. Aggregation is determined by the turbidometric method of Born G.V.R., Nature, 194, 927, (1962), and monitored at 37° C. with a Payton dual channel module with stirring speed set at 900 rpm. PRP (0.45 ml) is added to a siliconized cuvette and prewarmed to 37° C. Zero and 100% light transmission are set with PRP and PPP, respectively. AA (50 μl) is added to the stirring PRP one minute after the addition of 5 μl of the compound to be tested. A threshold dose (0.3 to 1 mM) of AA is chosen which causes maximum aggregation at about 2 minutes. […] Activities of compounds of the invention in this test can be found in Table III below.

[4] = system: collagen-induced rabbit platelet aggregation; experiment: Ex vivo inhibition of collagen-induced rabbit platelet aggregation by plasma of orally treated rats; type: in vivo, rabbit platelets; plasma of treated rats; conditions: for collagen-induced platelet aggregation, % of control: 4 rats, 1 hour after dosing, collagen 3 μg/ml, control = 100%
Experimental: (4) Ex vivo experiments: Inhibition of rabbit platelet aggregation induced by collagen by the plasma of rats treated with oral rac.-2-amino-N-(2,6-dimethylphenyl)-N-[3-(3-pyridinyl)propyl]propanamide dihydrochloride
The antiplatelet aggregatory activity of rac.-2-amino-N-(2,6-dimethylphenyl)-N-[3-(3-pyridinyl) propyl]propanamide dihydrochloride was observed ex vivo in rats.
control. The control = 100% platelet aggregation.
An aliquot (125 μl) of the platelet free plasma of the rats which had
been orally treated with compound for 1 hour was added to the platelet
rich plasma (125 μl) of the rabbit. Collagen (3 μg/ml) induced
platelet aggregation was measured turbidimetrically.

[5] = molecular target: T1, thromboxane A2 synthetase (Oryctolagus cuniculus, UniProt G1TAZ9); experiment: Thromboxane A2 synthetase inhibition, washed rabbit platelets, C^14-arachidonic acid substrate; type: biochemical; conditions: in vitro
T1 construct: Using washed rabbit platelets as the enzyme sources; from tissue; host or cells: washed rabbit platelets
T1 sequence (G1TAZ9 1-530): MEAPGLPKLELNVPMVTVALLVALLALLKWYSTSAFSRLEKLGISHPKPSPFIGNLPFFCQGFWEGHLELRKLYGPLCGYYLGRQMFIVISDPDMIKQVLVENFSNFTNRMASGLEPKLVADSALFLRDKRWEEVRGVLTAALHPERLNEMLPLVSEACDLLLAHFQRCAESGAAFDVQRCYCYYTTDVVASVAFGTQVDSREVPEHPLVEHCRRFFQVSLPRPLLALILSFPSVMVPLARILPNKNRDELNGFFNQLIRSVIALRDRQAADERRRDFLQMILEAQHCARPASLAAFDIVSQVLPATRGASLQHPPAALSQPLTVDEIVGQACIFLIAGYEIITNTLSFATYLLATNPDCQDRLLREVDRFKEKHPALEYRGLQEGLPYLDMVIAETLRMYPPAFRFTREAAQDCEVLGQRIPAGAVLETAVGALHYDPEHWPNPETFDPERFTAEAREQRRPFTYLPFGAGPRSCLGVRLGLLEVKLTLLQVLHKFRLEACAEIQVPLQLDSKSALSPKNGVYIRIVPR
Experimental: as §1, §2

[6] = system: ventricular arrhythmias induced by 2-stage ligation of the coronary artery; experiment: Ventricular arrhythmias induced by 2-stage ligation of the coronary artery (Harris dogs); type: in vivo, dog (mongrel); conditions: for incidence of ventricular premature contractions and conversion to sinus rhythm: n=5
Experimental: (2) Test for effectiveness against ventricular arrhythmias induced by 2-stage ligation of the coronary artery in dogs (Harris dogs)
Mongrel dogs weighing between 8-14 kg were anesthetized using 30 mg/kg i.v. of sodium pentobarbital. They were artificially ventilated with room air. After thoracotomy via the fourth left intercostal space, the pericardium was opened. The left anterior descending artery was dissected free for a few millimeters near the distal edge of the […] and ligated there in two stages being separated by an interval of 30 minutes. […] Electrograms were monitored continuously throughout the experiment and the number of ventricular and sinus beats (expressed per minute) was counted for 5 minutes every 15 or 30 minutes after p.o. administration of compound and the percentage of ventricular premature beats were calculated.

[7] = molecular target: T2, thromboxane A2 synthetase (Homo sapiens, UniProt P24557); experiment: Thromboxane A2 synthetase inhibition, human platelets, PG H2 substrate; type: biochemical; conditions: PG H2 as the substrate, read-out: thromboxane A2 synthetase inhibition IC50 range
T2 construct: thromboxane A2 synthetase activity of human platelets; from tissue; host or cells: human platelets
T2 sequence (P24557 1-533): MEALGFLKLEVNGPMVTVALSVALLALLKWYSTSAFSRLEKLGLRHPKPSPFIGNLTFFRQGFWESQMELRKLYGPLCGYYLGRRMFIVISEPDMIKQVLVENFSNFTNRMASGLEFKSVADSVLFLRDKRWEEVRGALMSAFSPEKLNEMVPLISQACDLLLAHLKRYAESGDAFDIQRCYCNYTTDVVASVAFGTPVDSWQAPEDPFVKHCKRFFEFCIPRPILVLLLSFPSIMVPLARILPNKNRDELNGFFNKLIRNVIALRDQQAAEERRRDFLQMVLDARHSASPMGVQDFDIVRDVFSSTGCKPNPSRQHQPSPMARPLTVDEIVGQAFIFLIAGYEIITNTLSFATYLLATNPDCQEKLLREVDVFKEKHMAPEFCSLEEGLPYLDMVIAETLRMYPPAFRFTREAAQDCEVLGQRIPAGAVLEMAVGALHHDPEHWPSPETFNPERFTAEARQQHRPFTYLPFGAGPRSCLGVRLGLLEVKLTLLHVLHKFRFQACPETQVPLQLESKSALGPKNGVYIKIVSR
Excerpt: as §2

[8] = read-out: Ouabain Induced Arrhythmias MED, Table III

SMILES | IC50 (Thromboxane Synthase) [µM] | IC50 [2] [µM] | IC50 [3] [µM] | minimal effective dose [1, 8] [mg/kg] | also measured
Cc1cccc(C)c1N(CCCc1cccnc1)C(=O)Cn1ccnc1 | 0.1 to 1 | 1 | > 10 | – | Ouabain Induced Arrhythmias: number dead/number tested ([1]; dead at 1 mg/kg IV): 1/2
Cc1cccc(C)c1N(CCCc1cccnc1)C(=O)Cn1ccnc1C | 0.1 to 1 | > 10 | > 10 | > 10 | –
Cc1cccc(C)c1NC(=O)C(C)N (centres unmarked) [reference compound] | – | > 100 | > 100 | 15.5 ± 3.4 | –
Cc1cccc(C)c1N(CCCc1cccnc1)C(=O)C(C)N.Cl.Cl (racemic) [rac.-2-amino-N-(2,6-dimethylphenyl)-N-[3-(3-pyridinyl)propyl]propanamide dihydrochloride] | 10 to 100 | 20 | 5 | 4.4 ± 1.4 | No. of effective cases/No. of experiments ([1]; 1 mg/kg i.v.): 0/4; No. of effective cases/No. of experiments ([1]; 3 mg/kg i.v.): 4/5; No. of effective cases/No. of experiments ([1]; 10 mg/kg i.v.): 1/1; minimal effective dose ([1]; 0.25 h, successive injections of 1, 3 and 10 mg/kg at 15 minute intervals, read-out: MED (minimum effective dose), Table I): 4.4 ± 1.4 mg/kg; collagen-induced platelet aggregation, % of control ([4]; 50 mg/kg p.o.): 77.1 ± 11.7 % of control; collagen-induced platelet aggregation, % of control ([4]; 100 mg/kg p.o., p < 0.01): 64.8 ± 6.2 % of control; collagen-induced platelet aggregation, % of control ([4]; 200 mg/kg p.o., p < 0.01): 40.3 ± 14.0 % of control; ED50 ([4]; Rattus norvegicus, Platelet, po, plasma of rats treated orally for 1 hour, read-out: ED50, inhibition of collagen-induced rabbit platelet aggregation (95% confidence limit)): 123 mg/kg; ED50, inhibition of collagen-induced rabbit platelet aggregation (95% confidence limit) ([4]; plasma of rats treated orally for 1 hour, dihydrochloride, 60 min): 123 (85-274) mg/kg p.o.; IC50 [5]: 38 µM; onset of the antiarrhythmic effects ([6]; 30 mg/kg p.o.): approximately 1 hour; time of maximum effect after dosing ([6]; 30 mg/kg p.o.): 5 h; percentage of ventricular premature beats at maximum effect ([6]; 30 mg/kg p.o., 5 hours after dosing, from 94±1.5%, p<0.01): 13±7.9%; incidence of ventricular premature contractions and conversion to sinus rhythm ([6]; 30 mg/kg p.o.): dramatically decreased the incidence of ventricular premature contractions (VPCs) and converted ventricular arrhythmias to sinus rhythm; onset of the antiarrhythmic effects ([6]; 100 mg/kg p.o.): ~2 h; time of maximum effect after dosing ([6]; 100 mg/kg p.o.): 2.5 h; percentage of ventricular premature beats at maximum effect ([6]; 100 mg/kg p.o., 2.5 hours after dosing, from 94±0.5%, p<0.05): 10±9.5%; incidence of ventricular premature contractions and conversion to sinus rhythm ([6]; 100 mg/kg p.o.): dramatically decreased the incidence of ventricular premature contractions (VPCs) and converted ventricular arrhythmias to sinus rhythm; duration of the antiarrhythmic effects after dosing ([6]; 30 and 100 mg/kg p.o.): at least 6 hours; IC50 [7]: 1 to 10 µM
Cc1cccc(C)c1N(CCCCn1ccnc1)C(=O)C(C)N (centres unmarked) | ~10 | > 10 | > 10 | > 10 | –
Cc1cccc(C)c1N(CCn1ccnc1)C(=O)CCCc1cccnc1 | 0.1 to 1 | 0.5 | 0.5 | – | Ouabain Induced Arrhythmias: number dead/number tested ([1]; dead at 3 mg/kg IV): 1/2

The next lines start with results.

IC50 (Thromboxane Synthase) [µM] | IC50 [2] [µM] | IC50 [3] [µM] | SMILES | minimal effective dose [1, 8] [mg/kg] | also measured
10 to 100 | – | – | Cc1ccc(N(CCCc2cccnc2)C(=O)C(C)N)cc1 (racemic) [H H CH3, rac.-2-amino-N-(4-methylphenyl)-N-[3-(3-pyridinyl)propyl]propanamide] | > 10 | –
10 to 100 | > 10 | > 10 | Cc1cccc(C)c1N(CCCCc1cccnc1)C(=O)C(C)N (centres unmarked) | – | Ouabain Induced Arrhythmias: number converted/number tested ([1]; converted at 3 mg/kg IV): 1/3
10 to 100 | – | – | Cc1cccc(C)c1N(CCCCCCc1cccnc1)C(=O)C(C)N (centres unmarked) | 8.3 ± 1.8 | –
10 to 100 | – | – | CC(N)C(=O)N(CCCc1cccnc1)c1ccccc1 (racemic) [H H H, rac.-2-amino-N-phenyl-N-[3-(3-pyridinyl)propyl]propanamide] | > 10 | –
